Results on one compound are retold here after US4118506A, “Pharmaceutical compositions containing 1,3-dithiol-2-ylidene malonate derivatives” (Nihon Nohyaku Co., Ltd., priority 1976, dated 1978).

The nature of series [1]: acute oral toxicity to male mice (LD50). The following applies: mouse, in vivo. An excerpt:
Further, these compounds have no detrimental effects on test animals administered therewith, so far as the doses thereof are within an ordinary administration range.

Series [2] deals with acute liver damage induced by D-galactosamine. The experiment in a line: protective effect on acute hepatitis with mesenchymal reaction and discrete lobular necrosis, D-galactosamine model. The format is in vivo, rat (SD strain). Particulars: 250 mg/kg oral 6 h before D-galactosamine i.p. As to the method:
D-Galactosamine is a compound which induces a discrete lobular necrosis associated with mesenchymal reaction similar to the change observed in human viral hepatitis, so that it is frequently used in producing a model for viral hepatitis.
The compound of this invention or anethol trithion was administered orally to the male rat (SD strain) at the dose of 250 mg/kg. Six hours after it, D-galactosamine was intraperitoneally administered at the dose of 600 mg/kg. Four hours after it, an additional 300 mg/kg was administered intraperitoneally. Eight hours after it, the animals were sacrificed to collect the blood samples. P-GPT activity and triglyceride in the liver were measured to evaluate the effect of the compound of this invention.

Series [3] has as its system fatty liver induced by ethionine. The experiment in a line: effect on fatty liver, ethionine model. Particulars: 250 mg/kg oral. The format is in vivo, mouse (dd-strain). The source says:
There are known many factors inducing fatty liver. But, the fatty liver is grouped into a couple of patterns from the mechanism of lipid accumulation or metabolism of lipoprotein in the liver. Ethionine is a typical example which induces first pattern of fatty liver. It inhibits RNA and protein synthesis and destroys polysome of the liver cell. Fatty liver is induced by inhibition of the protein synthesis and disturbance of lipoprotein secretion.
Usually, fatty liver is closely related to the accumulation of triglyceride in the liver. In the present example, the degree of fatty liver and protective or therapeutic effect on the fatty liver was evaluated by measurement of triglyceride content in the liver.
The compounds of this invention and methionine were independently dissolved or suspended into olive oil and administered orally to the male mouse (4 week-old dd-strain) at the dose of 250 mg/kg. One hour before it, simultaneously with it or one hour after it, ethionine dissolved in equimolar NaOH solution was administered intraperitoneally at the dose of 200 mg/kg. Twenty four hours after the administration of ethionine, the animals were sacrificed and triglyceride content in the liver was determined by chromotropic acid method.

The test system of series [4] is acute liver damage induced by chloroform. Nature of the series: protective effect on acute liver damage associated with centrilobular necrosis, chloroform model. The format is in vivo, mouse (dd). The following applies: chloroform 0.2 ml/kg oral; 100 mg/kg oral 6 h before; 24 h after. As to the method: (§1) Bromobenzene (hereinafter abbreviated as BB), Dimethylnitrosamine (hereinafter abbreviated as DMN) and chloroform (hereinafter abbreviated as CF) resemble carbon tetrachloride in inducing liver damage associated with centrilobular necrosis.
(§2) Test compound or anethol trithion was orally administered to animal at the dose of 100 mg/kg. Twenty four hours after it (in the case of dimethylnitrosamine, exceptionally fifteen hours after it) the animals were sacrificed and blood samples were collected. Indices of hepatotoxicity adoptable in each chemical were measured, from which the efficacy of the compound was evaluated.
CF male mouse 0.2 oral p-GPT activity

In series [5] the test system is acute liver damage induced by allyl alcohol. The experiment in a line: protective effect on acute liver damage associated with periportal necrosis, allyl alcohol model. Format: in vivo, mouse (dd strain). Particulars: 250 mg/kg oral 6 h before allyl alcohol 0.075 ml/kg oral; 24 h after. As to the method: The compound of this invention or anethol trithion was orally administered to the male mouse (4 week/old, dd strain) at the dose of 250 mg/kg. Six hours after it, allyl alcohol was orally administered at the dose of 0.075 ml/kg. Twenty four hours after it, the animals were sacrificed to collect blood samples.

Series [6] concerns cirrhosis induced by carbon tetrachloride. The experiment in a line: therapeutic effect on cirrhosis, carbon tetrachloride. The format is in vivo, rat (SD-strain). Particulars: therapeutic group, diet 2000 ppm. An excerpt: Almost all the liver diseases induced by various causes are considered to advance, finally, to cirrhosis. Cirrhosis is a final stage of liver damage, which is difficult to classify from the causal viewpoint. Usually, experimental cirrhosis is induced by long-term repeated administration of carbon tetrachloride. The therapeutic effect of the compounds of this invention on cirrhosis, which had been caused by carbon tetrachloride administration, was examined.
A 10% solution of carbon tetrachloride in olive oil was administered to the male rat (4 week-old SD-strain) intraperitoneally at the dose of 0.5 ml carbon tetrachloride/kg twice a week over a period of 10 weeks, to induce cirrhosis. Four days after the final administration of carbon tetrachloride, the formation of pseudo-lobulus was confirmed. Then the diseased animals were divided into two groups. Therapeutic group was submitted a diet containing 2000 ppm of Compound 4, while the positive control group was submitted a normal diet. Control group, to which olive oil alone had been administered, was submitted a normal diet.
At 1, 2, 4 and 8 weeks after beginning of Compound 4 feeding, 5 animals from each group were sacrificed, and the therapeutic effect on cirrhosis was evaluated by examining plasma transaminase activity (p-GPT and p-GOT, Reitman-Frankel method) and observing histopathological changes.
Degree of cirrhosis in the histopathological examination was graded as follows: […]

Series [7] has as its system fatty liver induced by carbon tetrachloride. Nature of the series: therapeutic effect on fatty liver, carbon tetrachloride model. The format is in vivo, rat (SD strain). As to the method: Carbon tetrachloride also induces fatty liver, but the picture of disease differs from the case of ethionine-induced fatty liver. Carbon tetrachloride is generally considered to damage microsome and thereby to inhibit protein synthesis and induce fatty liver.
Carbon tetrachloride was subcutaneously administered to 36 week-old male rats (SD strain) for 4 days at the dose of 1 ml/kg. The treated animals were left for 3 days after the last administration to maximize the manifestation of fatty liver.
Administration of Compound 4 was commenced on the fourth day after the administration of carbon tetrachloride was completed. It was orally given everyday for 10 days at the dose of 50 or 250 mg/kg. On the 11th day, the animals were sacrificed by exsanguination. The therapeutic effect was evaluated by determining the content of lipid in the liver (triglyceride and total lipid) and examining the histopathological changes. Triglyceride and total lipid were determined colorimetrically by chromotropic acid method and Bragdon's oxidation method, respectively.
Indices for the histopathological change is as follows: […]

Series [8] relates to acute liver damage induced by dimethylnitrosamine. Nature of the series: protective effect on acute liver damage associated with centrilobular necrosis, dimethylnitrosamine model. The format is in vivo, mouse (dd). Particulars: dimethylnitrosamine 0.05 ml/kg i.p.; 100 mg/kg oral 6 h before; 15 h after. As to the method:
as §1, §2
DMN male mouse 0.05 intraper-

[9] abbreviates: 50 mg/kg oral everyday for 10 days.

Turning to `CC(C)OC(=O)C(C(=O)OC(C)C)=C1SC=CS1` [Compound 4, diisopropyl 1,3-dithiol-2-ylidene malonate], in series [1], the LD50 came out at 3120 mg/kg. Besides, the “Triglyceride in the liver” value in series [2] turned out to be 4.4 ± 0.68 mg/g. For the same compound, the p-GPT is listed as 51 ± 15 Karmen unit in series [2], 58 ± 15 Karmen unit in series [4] and 204 ± 44 Karmen unit in series [8]. Besides, the Triglyceride in series [3] (1 hr after ethionine 200 mg/kg i.p.) was 10.0 ± 1.15 mg/g-liver; in series [3] (1 hr before ethionine 200 mg/kg i.p.), 9.1 ± 1.15 mg/g-liver; in series [3] (simultaneously with (0 hr) ethionine 200 mg/kg i.p.), 5.4 ± 0.61 mg/g-liver; in series [7] (setting [9]), 37.6 ± 8.5 mg/g-liver; in series [7] (250 mg/kg, 10 days), 23.6 ± 7.0 mg/g-liver. In addition, the BSP in series [5] was determined as 17 ± 3.2; in series [8], 10 ± 2.0 mg/dL. The p-GOT activity came to 562 ± 119 Karmen unit in series [6] (1 week), 182 ± 43 Karmen unit in series [6] (2 weeks), 142 ± 48 Karmen unit in series [6] (4 weeks) and 120 ± 32 Karmen unit in series [6] (8 weeks). The p-GPT activity was 169 ± 30 Karmen unit in series [6] (1 week), 43 ± 11 Karmen unit in series [6] (2 weeks), 45 ± 23 Karmen unit in series [6] (4 weeks) and 33 ± 20 Karmen unit in series [6] (8 weeks). In addition, the Total lipid in series [7] (setting [9]) worked out at 78.6 ± 16.8 mg/g-liver; in series [7] (250 mg/kg, 10 days), 64.1 ± 10.2 mg/g-liver.

The LD50 is the dose expected to kill half of the subjects tested.
